Measured values as given in patent US20080003311A1, “Rosmarinus extracts for inhibiting/treating skin aging” (SOCIETE L'OREAL, S.A., priority 1999, published 2008).

Tested on: normal human dermal fibroblasts
Experiment: Incorporation of radioactive proline (collagen synthesis) into cultures of normal human dermal fibroblasts
Type: cell-based
Method: The study was conducted by measuring the incorporation of radioactive proline into cultures of normal human dermal fibroblasts. The fibroblast cultures were prepared according to conventional cell culture methods, i.e., in MEM/M199 medium marketed by Gibco in the presence of sodium bicarbonate (1.87 mg/ml), of L-glutamine (2 mM), of penicillin (50 IU/ml) and of 10% of fetal calf serum (Gibco). The assay was carried out on cell cultures at 80% confluency, in a 24-well plate. […] The labeling with tritiated proline (L-[2,3-^3H]-proline sold by Amersham, 33 (μCi/ml) was carried out for 24 hours. The level of tritiated proline incorporated was measured at the end of the assay by acid precipitation of the proteins on filters and liquid scintillation counting. […] A positive control (vitamin C at 20 (g/ml) known to stimulate collagen synthesis was introduced into the assay as a reference. The results of this assay, expressed as percentages of activation, are reported in the following Table I: […]

Structure (SMILES): O=C1O[C@H]([C@@H](O)CO)C(O)=C1O [Vitamin C]
- cpm (tritiated proline incorporated) (vitamin C at 20 (g/ml, positive control), untreated cells 7498 cpm): 13091 cpm
- percentage of activation of proline incorporation (vitamin C at 20 (g/ml, versus untreated cells)): 75%
